ChEMBL document CHEMBL5500368, “Discovery of novel diaryl substituted isoquinolin-1(2H)-one derivatives as hypoxia-inducible factor-1 signaling inhibitors for the treatment of rheumatoid arthritis” (Eur J Med Chem, 2024)

Assays:
[1] = Inhibition of HIF-1 (unknown origin) expressed in MH7A cells cotransfected with HRE and renilla luciferase assessed as reduction in luminescence signal preincubated for 1 hr under normoxic condition followed by 24 hrs incubation under hypoxic condition by dual luciferase reporter assay; conditions: Homo sapiens
[2] = Cytotoxicity against human MH7A cells

Question: With `COc1ccccc1-c1ccc2c(=O)n(CCc3ccccc3)ccc2c1` as the molecule, how does the IC50 [1] read?
Answer: Its IC50 is 3.31 µM.

Question: And the CC50 [2]?
Answer: The CC50 was greater than 50 µM.

Question: With `COc1ccc(-c2ccc3c(=O)n(Cc4ccccc4F)ccc3c2)cc1` as the molecule, how does the IC50 [1] read?
Answer: Its IC50 is 3.54 µM.

Question: What about the CC50 [2] of the same molecule?
Answer: Its CC50 is greater than 50 µM.

Question: For `O=c1c2ccc(-c3ccc(O)cc3)cc2ccn1CCc1ccccc1`, which IC50 [1] is on record?
Answer: The IC50 was 0.82 µM.

Question: What about the CC50 [2] of the same molecule?
Answer: The CC50 was greater than 50 µM.

Question: Which IC50 [1] does the source give for `O=c1c2ccc(-c3ccoc3)cc2ccn1Cc1ccccc1` here?
Answer: Its IC50 is 5.92 µM.

Question: And the CC50 [2]?
Answer: The CC50 was greater than 50 µM.

Question: With `O=c1c2ccc(-c3ccccc3O)cc2ccn1CCc1ccccc1` as the molecule, how does the IC50 [1] read?
Answer: Its IC50 is 0.91 µM.

Question: And the CC50 [2]?
Answer: Its CC50 is greater than 50 µM.

Question: For `O=c1c2ccc(-c3ccoc3)cc2ccn1Cc1ccccc1F`, which IC50 [1] is on record?
Answer: Its IC50 is 1.46 µM.

Question: And the CC50 [2]?
Answer: The CC50 was greater than 50 µM.

Question: For `O=c1c2ccc(-c3cccc(O)c3)cc2ccn1CCc1ccccc1`, which IC50 [1] is on record?
Answer: The IC50 was 7.39 µM.

Question: What about the CC50 [2] of the same molecule?
Answer: Its CC50 is greater than 50 µM.

Question: Which results are given for `O=c1c2ccc(-c3ccc(F)cc3)cc2ccn1CCc1ccccc1`?
Answer: IC50 [1]: 6.21 µM; CC50 [2]: > 50 µM

Question: Which results are given for `COc1ccccc1-c1ccc(C(=O)NCCc2ccccc2F)nc1`?
Answer: IC50 [1]: 4.57 µM; CC50 [2]: > 50 µM

Question: For `COc1ccc(-c2ccc3c(=O)n(CCc4ccccc4)ccc3c2)cc1`, which IC50 [1] is on record?
Answer: The IC50 was 2.18 µM.

Question: What about the CC50 [2] of the same molecule?
Answer: The CC50 was greater than 50 µM.

Question: What does the source list for `COc1ccccc1-c1ccc2c(=O)n(Cc3ccccc3F)ccc2c1`?
Answer: IC50 [1]: 6.73 µM; CC50 [2]: > 50 µM
